Measurements: patent US7655633B2, “Nitrogen-containing heterocyclic derivatives, medicinal compositions containing the same and medicinal use thereof” (Kissei Pharmaceutical Co., Ltd., priority 2002, dated 2010)

Target: T1, human SGLT2 (Homo sapiens, UniProt P31639)
T1 construct: expressed in transfected cells
T1 sequence (P31639 1-672): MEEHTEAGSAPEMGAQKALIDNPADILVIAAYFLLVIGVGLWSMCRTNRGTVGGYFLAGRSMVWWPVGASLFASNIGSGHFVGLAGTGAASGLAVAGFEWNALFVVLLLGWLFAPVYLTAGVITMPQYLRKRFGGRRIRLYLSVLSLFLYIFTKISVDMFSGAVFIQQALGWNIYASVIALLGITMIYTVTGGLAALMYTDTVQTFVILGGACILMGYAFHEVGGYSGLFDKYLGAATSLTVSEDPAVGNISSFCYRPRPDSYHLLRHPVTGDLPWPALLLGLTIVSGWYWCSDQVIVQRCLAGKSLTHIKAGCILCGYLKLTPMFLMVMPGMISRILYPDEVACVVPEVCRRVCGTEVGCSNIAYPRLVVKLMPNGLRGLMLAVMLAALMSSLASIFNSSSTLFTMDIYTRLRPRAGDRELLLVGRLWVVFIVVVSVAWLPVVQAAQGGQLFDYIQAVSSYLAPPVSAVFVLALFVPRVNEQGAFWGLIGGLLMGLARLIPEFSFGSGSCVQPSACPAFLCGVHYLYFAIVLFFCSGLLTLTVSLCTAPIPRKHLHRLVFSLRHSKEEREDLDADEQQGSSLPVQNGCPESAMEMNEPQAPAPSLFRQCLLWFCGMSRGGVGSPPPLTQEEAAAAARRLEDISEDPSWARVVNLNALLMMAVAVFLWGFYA
Assay: Assay for inhibitory effects on human SGLT2 activity (uptake of methyl-α-D-glucopyranoside in CS2-5E cells)
Type: cell-based
Settings: inhibition of 14C-labeled α-MG (1 mM) uptake, CHO-K1 cells stably expressing human SGLT2 (CS2-5E), 37° C., 1 hour
Protocol: Assay for Inhibitory Effects on Human SGLT2 Activity
1) Cloning and Construction of the Vector Expressing Human SGLT2
The cDNA library was prepared for PCR amplification by reverse transcription from total RNA deprived from human kidney (Ori gene) using oligo-dT as a primer. Using this cDNA library as a template, the base sequence coding 2 to 2039 bp of human SGLT2 (ACCESSION: M95549, M95299), which was reported by R. G. Wells et al., was amplified by PCR method and inserted into the multi-cloning site of pcDNA3.1(−) (Invitrogen). The DNA sequence inserted was perfectly matched to the previously reported sequence.
2) Establishment of Cell Line Stably Expressing Human SGLT2
The expression vector of human SGLT2 was digested by Sca I into a linear DNA. The linear DNA was transfected into CHO-K1 cells by means of lipofection (Effectene Transfection Reagent: QIAGEN). Neomycin resistant cell lines were obtained by culture in the medium containing 1 mg/mL of G418 (LIFE TECHNOLOGIES), and then the activity against the uptake of methyl-α-D-gluco-pyranoside was measured by the method described below. […] Afterward, CS2-5E cells were cultured in the presence of G418 at 200 μg/mL. […]
CS2-5E cells were seeded into a 96-well culture plate at a density of 3×10^4 cells/well and cultured for 2 days, and were used in the uptake assay. […] Radioactivity was measured by means of scintillation counter (Packard). […]

Cc1cc(C)c(Cc2ccc(C)c(F)c2)c(O[C@@H]2O[C@H](CO)[C@@H](O)[C@H](O)[C@H]2O)n1 [Example 1, 2-(β-D-Glucopyranosyloxy)-3-(3-fluoro-4-methylbenzyl)-4,6-dimethylpyridine]
IC50: 3 nM
